In patent US20060148774A1, “Hypoglycemic agent” (Riken, priority 2001, published 2006):

Assays:
Body weight = type: in vivo; settings: db/db mice, 0.3% in the feed, 19-week old
c57BL db/db male mice [1] = test: Urinary sugar by urinary test paper; type: in vivo; settings: for urinary sugar, Positive ratio: + or higher positive
c57BL db/db male mice [2] = test: Change in blood sugar level in Type-2 diabetes model mice fed 5-campesten-3-one in the feed; type: in vivo; settings: for blood sugar level relative to control group (second group): 0.1% in the feed
c57BL db/db male mice [3] = settings: 19-week old
Method: (§1) 6-Week old c57BL db/db male mice, as being a Type-2 diabetes model animal having homozygote diabetes pathogenic gene (db), were divided in three groups each consisting of 10 animals. A group of healthy c57BL db/+m male mice (10 animals) having heterozygote db gene was used as a control group. The animals were housed in plastic cages for mice at five animals per cage. The animals were fed under feeding conditions at a temperature of 24±1° C. and a relative humidity of 55±5%, where light and darkness were controlled to change every 12 hours, and each cage and bedding materials were exchanged twice a week. The animals were allowed to water ad libitum.
(§2) Feed CMF for mouse (Oriental Yeast Co.) was used as a basic feed, and 0.1% or 0.3% of 5-campesten-3-one was mixed to the feed to prepare an experimental feed. The resulting feeds were kept at 4° C. before the start of feeding.
(§3) The animals were autopsied, and the brain, lungs, heart, liver, spleen, pancreas, kidneys, adrenals, and testis were macroscopically examined and weighed.

c57BL db/db male mice [4] = settings: mouse, in vivo
Method: as §1, §2, §3

c57BL db/db male mice [5] = test: Oral glucose tolerance test (OGTT); type: in vivo; settings: db/db mice 19-week old; for OGTT blood sugar level: glucose 2 g/kg oral
Method: The animals were allowed to water ad libitum.
For oral glucose tolerance test, the animals, starved for 16 hours from the night before of the end of the feeding (19-week old), were orally administered with glucose (2 g/kg), and the bloods were collected from orbital venous plexus at time 0 and after 60 and 120 minutes by using a capillary glass to measure blood sugar levels.

[6] = 0.1% in the feed, week 7 (period 0 week)
[7] = 0.1% in the feed, week 9 (period 2 weeks)
[8] = 0.1% in the feed, week 11 (period 4 weeks)
[9] = 0.1% in the feed, week 13 (period 6 weeks)
[10] = 0.1% in the feed, week 15 (period 8 weeks)
[11] = 0.1% in the feed, week 17 (period 10 weeks)
[12] = 0.3% in the feed, 7- to 17-week old
[13] = 0.3% in the feed, week 7 (period 0 week)
[14] = 0.3% in the feed, week 9 (period 2 weeks)
[15] = 0.3% in the feed, week 11 (period 4 weeks)
[16] = 0.3% in the feed, week 13 (period 6 weeks)
[17] = 0.3% in the feed, week 15 (period 8 weeks)
[18] = 0.3% in the feed, week 17 (period 10 weeks)

Which results are given for `CC(C)[C@H](C)CC[C@@H](C)[C@H]1CC[C@H]2[C@@H]3CC=C4CC(=O)CC[C@]4(C)[C@H]3CC[C@]12C` [5-campesten-3-one]?
body weight compared to control group (second group) (Body weight): significantly higher; onset of positive urinary sugar (c57BL db/db male mice [1]; 0.1% in the feed): a delay in giving a positive result was observed; urinary sugar, number of mice graded + (c57BL db/db male mice [1]; [6]): 1; urinary sugar, number of mice graded ++ (c57BL db/db male mice [1]; [6]): 0; urinary sugar, number of mice graded +++ (c57BL db/db male mice [1]; [6]): 4; urinary sugar, number of mice graded ± (c57BL db/db male mice [1]; [6]): 1; urinary sugar, number of mice graded − (c57BL db/db male mice [1]; [6]): 2; urinary sugar, Positive ratio (c57BL db/db male mice [1]; [6]): 63%; urinary sugar, number of mice graded + (c57BL db/db male mice [1]; [7]): 0; urinary sugar, number of mice graded ++ (c57BL db/db male mice [1]; [7]): 2; urinary sugar, number of mice graded +++ (c57BL db/db male mice [1]; [7]): 2; urinary sugar, number of mice graded ± (c57BL db/db male mice [1]; [7]): 2; urinary sugar, number of mice graded − (c57BL db/db male mice [1]; [7]): 1; urinary sugar, Positive ratio (c57BL db/db male mice [1]; [7]): 57%; urinary sugar, number of mice graded + (c57BL db/db male mice [1]; [8]): 1; urinary sugar, number of mice graded ++ (c57BL db/db male mice [1]; [8]): 0; urinary sugar, number of mice graded +++ (c57BL db/db male mice [1]; [8]): 7; urinary sugar, number of mice graded ± (c57BL db/db male mice [1]; [8]): 0; urinary sugar, number of mice graded − (c57BL db/db male mice [1]; [8]): 1; urinary sugar, Positive ratio (c57BL db/db male mice [1]; [8]): 89%; urinary sugar, number of mice graded + (c57BL db/db male mice [1]; [9]): 0; urinary sugar, number of mice graded ++ (c57BL db/db male mice [1]; [9]): 0; urinary sugar, number of mice graded +++ (c57BL db/db male mice [1]; [9]): 9; urinary sugar, number of mice graded ± (c57BL db/db male mice [1]; [9]): 0; urinary sugar, number of mice graded − (c57BL db/db male mice [1]; [9]): 0; urinary sugar, Positive ratio (c57BL db/db male mice [1]; [9]): 100%; urinary sugar, number of mice graded + (c57BL db/db male mice [1]; [10]): 0; urinary sugar, number of mice graded ++ (c57BL db/db male mice [1]; [10]): 1; urinary sugar, number of mice graded +++ (c57BL db/db male mice [1]; [10]): 8; urinary sugar, number of mice graded ± (c57BL db/db male mice [1]; [10]): 0; urinary sugar, number of mice graded − (c57BL db/db male mice [1]; [10]): 0; urinary sugar, Positive ratio (c57BL db/db male mice [1]; [10]): 100%; urinary sugar, number of mice graded + (c57BL db/db male mice [1]; [11]): 1; urinary sugar, number of mice graded ++ (c57BL db/db male mice [1]; [11]): 0; urinary sugar, number of mice graded +++ (c57BL db/db male mice [1]; [11]): 8; urinary sugar, number of mice graded ± (c57BL db/db male mice [1]; [11]): 0; urinary sugar, number of mice graded − (c57BL db/db male mice [1]; [11]): 0; urinary sugar, Positive ratio (c57BL db/db male mice [1]; [11]): 100%; positive ratio of urinary sugar, range over the test period (c57BL db/db male mice [1]; [12]): 14 to 70%; positive degrees of urinary sugar compared to control group (second group) (c57BL db/db male mice [1]; 0.3% in the feed, almost a half of the mice + (150 mg/dl) or ++ (500 mg/dl)): lower than the results of the control group; urinary sugar, number of mice graded + (c57BL db/db male mice [1]; [13]): 0; urinary sugar, number of mice graded ++ (c57BL db/db male mice [1]; [13]): 0; urinary sugar, number of mice graded +++ (c57BL db/db male mice [1]; [13]): 1; urinary sugar, number of mice graded ± (c57BL db/db male mice [1]; [13]): 0; urinary sugar, number of mice graded − (c57BL db/db male mice [1]; [13]): 6; urinary sugar, Positive ratio (c57BL db/db male mice [1]; [13]): 14%; urinary sugar, number of mice graded + (c57BL db/db male mice [1]; [14]): 0; urinary sugar, number of mice graded ++ (c57BL db/db male mice [1]; [14]): 1; urinary sugar, number of mice graded +++ (c57BL db/db male mice [1]; [14]): 0; urinary sugar, number of mice graded ± (c57BL db/db male mice [1]; [14]): 0; urinary sugar, number of mice graded − (c57BL db/db male mice [1]; [14]): 4; urinary sugar, Positive ratio (c57BL db/db male mice [1]; [14]): 20%; urinary sugar, number of mice graded + (c57BL db/db male mice [1]; [15]): 0; urinary sugar, number of mice graded ++ (c57BL db/db male mice [1]; [15]): 2; urinary sugar, number of mice graded +++ (c57BL db/db male mice [1]; [15]): 3; urinary sugar, number of mice graded ± (c57BL db/db male mice [1]; [15]): 1; urinary sugar, number of mice graded − (c57BL db/db male mice [1]; [15]): 2; urinary sugar, Positive ratio (c57BL db/db male mice [1]; [15]): 63%; urinary sugar, number of mice graded + (c57BL db/db male mice [1]; [16]): 1; urinary sugar, number of mice graded ++ (c57BL db/db male mice [1]; [16]): 2; urinary sugar, number of mice graded +++ (c57BL db/db male mice [1]; [16]): 2; urinary sugar, number of mice graded ± (c57BL db/db male mice [1]; [16]): 0; urinary sugar, number of mice graded − (c57BL db/db male mice [1]; [16]): 5; urinary sugar, Positive ratio (c57BL db/db male mice [1]; [16]): 50%; urinary sugar, number of mice graded + (c57BL db/db male mice [1]; [17]): 1; urinary sugar, number of mice graded ++ (c57BL db/db male mice [1]; [17]): 1; urinary sugar, number of mice graded +++ (c57BL db/db male mice [1]; [17]): 2; urinary sugar, number of mice graded ± (c57BL db/db male mice [1]; [17]): 1; urinary sugar, number of mice graded − (c57BL db/db male mice [1]; [17]): 4; urinary sugar, Positive ratio (c57BL db/db male mice [1]; [17]): 44%; urinary sugar, number of mice graded + (c57BL db/db male mice [1]; [18]): 3; urinary sugar, number of mice graded ++ (c57BL db/db male mice [1]; [18]): 1; urinary sugar, number of mice graded +++ (c57BL db/db male mice [1]; [18]): 3; urinary sugar, number of mice graded ± (c57BL db/db male mice [1]; [18]): 2; urinary sugar, number of mice graded − (c57BL db/db male mice [1]; [18]): 1; urinary sugar, Positive ratio (c57BL db/db male mice [1]; [18]): 70%; blood sugar level relative to control group (second group) (c57BL db/db male mice [2]; 9-week old): increased; blood sugar level relative to control group (second group) (c57BL db/db male mice [2]; 11-week old): decreased; blood sugar level relative to control group (second group) (c57BL db/db male mice [2]; 17-week old): lower level; change with time in blood sugar level (c57BL db/db male mice [2]; [12]): almost constant level without a significant increase; blood sugar level, initial value (c57BL db/db male mice [2]; 0.3% in the feed, 7-week old): 270 mg/dL; blood sugar level compared to control group (second group) (c57BL db/db male mice [2]; 0.3% in the feed, after 9-week old): significantly lower values at every measuring times after 9-week old; autopsy of brain, heart, lungs, livers, pancreas, spleen, kidneys, adrenals (c57BL db/db male mice [3]; 0.1% and 0.3% in the feed, some mice with fat liver, as in the control db/db group): no particular abnormality was observed; weight of the testis (absolute weight) as % of that of the healthy mice (first group) (c57BL db/db male mice [3]; 0.3% in the feed, untreated diabetic mice 50 to 60%): 85%; general conditions during the experimental period (c57BL db/db male mice [4]): no abnormal findings such as diarrhea was observed; OGTT blood sugar levels compared to second group (c57BL db/db male mice [5]; 0.1% in the feed, every measuring point): significantly lower than the levels of the second group at every measuring points; OGTT blood sugar level (c57BL db/db male mice [5]; 0.1% in the feed, 60 minutes): 703 mg/dL; OGTT blood sugar level (c57BL db/db male mice [5]; 0.1% in the feed, 120 minutes): 558 mg/dL; OGTT blood sugar level (c57BL db/db male mice [5]; 0.1% in the feed, time 0): 497 mg/dL; OGTT blood sugar level (c57BL db/db male mice [5]; 0.3% in the feed, 60 minutes): almost the same 60-munites value as that of the third group; OGTT blood sugar level (c57BL db/db male mice [5]; 0.3% in the feed, 120 minutes): 440 mg/dL; OGTT blood sugar level (c57BL db/db male mice [5]; 0.3% in the feed, time 0): 282 mg/dL
